Laboratory results reported in ChEMBL document CHEMBL1201862, “PubChem BioAssay data set” (2004).
Values joined by “and” are separate entries in the source; they are usually repeats but may differ in a detail not shown here. Equal values may be shown once.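 Exposure lasted 48 hours, with cells grown in 96-well plates and compounds tested at five concentrations. The concentration for 50% growth inhibition is given as GI50.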 Active and inactive are the calls of the source. Cut-off read from the data, not from the text of the source: active = GI50 up to about 1.1 µM and inactive = higher.

Legend:
Test in all cases: NCI anticancer screen, dose series, 48 h
HCT-15 = tested on: HCT-15
DLD-1 = tested on: DLD-1
SN12C = tested on: SN12C
HOP-92 = tested on: HOP-92
HOP-62 = tested on: HOP-62
786-0 = tested on: 786-0
ACHN = tested on: ACHN
MOLT-4 = tested on: MOLT-4
TK-10 = tested on: TK-10
K562 = tested on: K562
NCI-H23 = tested on: NCI-H23
LXFL 529 = tested on: LXFL 529
NCI-H522 = tested on: NCI-H522
DMS-273 = tested on: DMS-273
UO-31 = tested on: UO-31
T47D = tested on: T47D
Hs-578T = tested on: Hs-578T
MDA-MB-231 = tested on: MDA-MB-231
DU-145 = tested on: DU-145
NCI/ADR-RES = tested on: NCI/ADR-RES

| Compound | GI50 (HCT-15) [µM] | GI50 (DLD-1) | GI50 (SN12C) | GI50 (HOP-92) | GI50 (HOP-62) | GI50 (786-0) | GI50 (ACHN) | GI50 (MOLT-4) | GI50 (TK-10) | GI50 (K562) | GI50 (NCI-H23) | GI50 (LXFL 529) | GI50 (NCI-H522) | GI50 (DMS-273) | GI50 (UO-31) | GI50 (T47D) | GI50 (Hs-578T) | GI50 (MDA-MB-231) | GI50 (DU-145) | GI50 (NCI/ADR-RES) |
| --- | --- | --- | --- | --- | --- | --- | --- | --- | --- | --- | --- | --- | --- | --- | --- | --- | --- | --- | --- | --- |
| O=C(NC(=O)c1cn(CCNCCO)c(=O)[nH]c1=O)OCc1ccccc1 | > 100 | > 100 µM (inactive) | > 100 µM (inactive) | > 100 µM (inactive) | > 100 µM (inactive) | > 100 µM (inactive) | > 100 µM (inactive) | > 100 µM (inactive) | > 100 µM (inactive) | > 100 µM (inactive) | > 100 µM (inactive) | > 100 µM (inactive) | > 100 µM (inactive) |  |  |  |  |  |  |  |
| CC(=O)Nc1ccc(-c2nnc(SCC(=O)Nc3ccc(Cl)cc3)o2)cc1 | 13.9 | 10.4 µM (inactive) | 10.4 µM (inactive) |  | 22.4 µM (inactive) | 5.78 µM (inactive) | 12.7 µM (inactive) | 11.2 µM (inactive) | 18.4 µM (inactive) | 5.83 µM (inactive) | 3.39 µM (inactive) | 8.97 µM (inactive) | 2.34 µM (inactive) | 14.5 µM (inactive) | 14.4 µM (inactive) |  |  |  |  |  |
| CC(=O)O[C@H]1CC[C@@]2(C)C(=CC[C@@H]3C2CC[C@]2(C)Nc4nc5ccccc5cc4CC32)C1 (some centres undefined) | 2.51 | 3.72 µM (inactive) | 7.1 µM (inactive) |  | 13.3 µM (inactive) | 3.28 µM (inactive) | 4.72 µM (inactive) | 3.3 µM (inactive) | 5.31 µM (inactive) | 3.21 µM (inactive) | 12.4 µM (inactive) | 3.38 µM (inactive) | 11.4 µM (inactive) | 4.82 µM (inactive) | 4.92 µM (inactive) |  |  |  |  |  |
| Cc1nc2c(n1CCN(C)C)C(=O)c1ccccc1C2=O | 12.8 | 13.5 µM (inactive) | 16.6 µM (inactive) |  | 26.9 µM (inactive) | 28 µM (inactive) | 14.8 µM (inactive) | 19.7 µM (inactive) | 38.8 µM (inactive) | 18.8 µM (inactive) | 12.1 µM (inactive) | 17.9 µM (inactive) | 5.38 µM (inactive) | 13.5 µM (inactive) | 21 µM (inactive) |  |  |  |  |  |
| CCc1cccc(C(C)CC)c1/N=C(/NC(=O)c1ccccc1C(=O)N/C(=N/c1c(CC)cccc1C(C)CC)SC)SC (centres undefined) | 40.1 | 58.5 µM (inactive) | 40.1 µM (inactive) | 10.5 µM (inactive) | 31.1 µM (inactive) | 49.3 µM (inactive) | 36.1 µM (inactive) | 29.2 µM (inactive) | 30.8 µM (inactive) | 27.7 µM (inactive) | 31.9 µM (inactive) | 39.9 µM (inactive) | 28.2 µM (inactive) |  | 30.6 µM (inactive) |  |  |  |  |  |
| CCOc1ccccc1NC(=O)C(=O)c1c(O)c2ccc(O)cc2oc1=O | > 100 | > 100 µM (inactive) | > 100 µM (inactive) |  | > 100 µM (inactive) | > 100 µM (inactive) | > 100 µM (inactive) | > 100 µM (inactive) | > 100 µM (inactive) | > 100 µM (inactive) | > 100 µM (inactive) | > 100 µM (inactive) | > 100 µM (inactive) | > 100 µM (inactive) | > 100 µM (inactive) |  |  |  |  |  |
| CC(=O)N1c2ccccc2N(C(C)=O)C1c1ccc(C2N(C(C)=O)c3ccccc3N2C(C)=O)[nH]1 | > 100 |  | > 100 µM (inactive) | > 100 µM (inactive) | > 100 µM (inactive) | > 100 µM (inactive) |  | > 100 µM (inactive) | > 100 µM (inactive) | > 100 µM (inactive) | > 100 µM (inactive) | > 100 µM (inactive) | > 100 µM (inactive) | > 100 µM (inactive) | > 100 µM (inactive) |  |  |  |  |  |
| O=C1c2nn(-c3ccccc3)nc2C(c2ccccc2)N1c1ccccc1 (centres undefined) | > 100 | > 100 µM (inactive) | > 100 µM (inactive) |  | 28.3 µM (inactive) | 33.3 µM (inactive) | > 100 µM (inactive) | > 100 µM (inactive) |  | > 100 µM (inactive) | > 100 µM (inactive) | > 100 µM (inactive) | > 100 µM (inactive) | > 100 µM (inactive) | > 100 µM (inactive) |  |  |  |  |  |
| Cc1ccc(S(=O)(=O)N/N=C/c2oc(-c3ccncc3)c(-c3ccncc3)c2[N+](=O)[O-])cc1 | > 100 | > 100 µM (inactive) | > 100 µM (inactive) |  | > 100 µM (inactive) | > 100 µM (inactive) | > 100 µM (inactive) | > 100 µM (inactive) | > 100 µM (inactive) | > 100 µM (inactive) | > 100 µM (inactive) | > 100 µM (inactive) | > 100 µM (inactive) | > 100 µM (inactive) | > 100 µM (inactive) |  |  |  |  |  |
| CC1CC(=O)N(N(C)C)C(C#N)(C#N)C1(C#N)C#N (centres undefined) | 16.3 |  | 21 µM (inactive) | 7.6 µM (inactive) | 26.1 µM (inactive) | 12.2 µM (inactive) | 15.4 µM (inactive) | 1.87 µM (inactive) | 16 µM (inactive) | 2.81 µM (inactive) | 20 µM (inactive) |  | 2.77 µM (inactive) |  | 16.9 µM (inactive) | 15.5 µM (inactive) | 23.2 µM (inactive) | 15.2 µM (inactive) | 18.2 µM (inactive) | 21.7 µM (inactive) |
| CC1CCC(C(C)(C)c2ccccc2)C(=O)C1 (centres undefined) | > 100 | > 100 µM (inactive) | > 100 µM (inactive) | 18.7 µM (inactive) | > 100 µM (inactive) | > 100 µM (inactive) | > 100 µM (inactive) | > 100 µM (inactive) | > 100 µM (inactive) | > 100 µM (inactive) |  | > 100 µM (inactive) |  | > 100 µM (inactive) | 18.3 µM (inactive) |  |  |  |  |  |
| CN1C(OCc2ccccc2)c2c(ccc3c2OCO3)C2C=Cc3cc4c(cc3C21)OCO4 (centres undefined) | 0.597 | 0.434 µM (active) | 1.32 µM (inactive) | 1.08 µM (active) | 1.58 µM (inactive) | 1.36 µM (inactive) | 1.51 µM (inactive) | 0.223 µM (active) | 1.89 µM (inactive) | 0.611 µM (active) | 1.38 µM (inactive) | 0.371 µM (active) | 0.989 µM (active) |  | 1.32 µM (inactive) |  |  |  |  |  |
| COC(=O)CCC(NC(=S)N/N=C(\C)c1ccccn1)C(=O)OC (centres undefined) | 40.9 | 43 µM (inactive) | 89.1 µM (inactive) | 41.7 µM (inactive) | 57.3 µM (inactive) | 65.8 µM (inactive) | 28.5 µM (inactive) | 24.2 µM (inactive) | > 100 µM (inactive) | 53.7 µM (inactive) | > 100 µM (inactive) | 40.4 µM (inactive) | 33.3 µM (inactive) |  | 38.1 µM (inactive) |  |  |  |  |  |
| Cc1[nH]c2ccccc2c1C1CC(=O)NC1=O (centres undefined) | > 100 | > 100 µM (inactive) |  |  | > 100 µM (inactive) | > 100 µM (inactive) | > 100 µM (inactive) | > 100 µM (inactive) | > 100 µM (inactive) | > 100 µM (inactive) | > 100 µM (inactive) |  |  | > 100 µM (inactive) | > 100 µM (inactive) |  |  |  |  |  |
| C/C(=C\c1ccccc1)C(O)S(=O)(=O)O (centres undefined) | > 100 | > 100 µM (inactive) | > 100 µM (inactive) |  | > 100 µM (inactive) | > 100 µM (inactive) | > 100 µM (inactive) | > 100 µM (inactive) | > 100 µM (inactive) | > 100 µM (inactive) | > 100 µM (inactive) | > 100 µM (inactive) | > 100 µM (inactive) | > 100 µM (inactive) | > 100 µM (inactive) |  |  |  |  |  |
| C=CCO[C@H]1CC[C@@]2(C)C(CC[C@]3(C)C2CC=C2[C@@H]4[C@@H](C)C(C)CC[C@]4(C(=O)O)CCC23C)C1(C)C (some centres undefined) |  | 17.3 µM (inactive) | 13.6 µM (inactive) | 16.3 µM (inactive) | 22.1 µM (inactive) | 15.7 µM (inactive) | 15.4 µM (inactive) |  | 18.2 µM (inactive) | 14.3 µM (inactive) | 14.9 µM (inactive) | 12.6 µM (inactive) | 13.2 µM (inactive) |  | 15 µM (inactive) |  |  |  |  |  |
| COc1cccc2c1C(=O)c1c(O)c3c(c(O)c1C2=O)C[C@@](O)(C(=O)CO)C[C@@H]3OC1CC(N)C(O)C(C)O1 (some centres undefined) |  |  | 89.5 nM (active) and 170 nM (active) |  |  | 102 nM (active) and 57.5 nM (active) | 0.255 µM (active) | 16.9 nM (active) and 10 nM (active) | 726 nM (active) and 404 nM (active) |  | 76.4 nM (active) and 105 nM (active) |  |  | 0.0883 µM (active) |  | 94.2 nM (active) and 94 nM (active) |  |  |  |  |
| N[C@H](C(=O)O)[C@@H]1CC(Cl)=NO1 [ACIVICIN] | 0.738 | 1.23 µM (inactive) | 3.5 µM (inactive) | 33.2 µM (inactive) | 1.42 µM (inactive) | 13.8 µM (inactive) | 1.47 µM (inactive) | 2.14 µM (inactive) | 2.7 µM (inactive) | 2.46 µM (inactive) | 4.07 µM (inactive) |  | 4.43 µM (inactive) | 2.33 µM (inactive) | 6.25 µM (inactive) | 7.73 µM (inactive) | 3.62 µM (inactive) | 72.6 µM (inactive) | 2.48 µM (inactive) | 4.44 µM (inactive) |
| CO[C@H]1Nc2c(ccc(C)c2O)C(=O)N2C=C(/C=C/C(N)=O)C[C@@H]12 [ANTHRAMYCIN METHYL ETHER] | 0.0283 | 0.118 µM (active) | 0.0221 µM (active) | 0.0258 µM (active) | 0.0186 µM (active) | 0.0163 µM (active) | 0.0181 µM (active) | 0.0276 µM (active) | 0.0585 µM (active) | 0.0396 µM (active) | 0.0327 µM (active) |  | 0.0222 µM (active) | 0.0295 µM (active) | 0.0175 µM (active) | 0.495 µM (active) | 0.0103 µM (active) | 0.0159 µM (active) | 0.0377 µM (active) | 0.0315 µM (active) |
